Experimental data taken from US20180133248A1, “T[…] AGENT AND TREATMENT” (priority 2014, published 2018).

Tested on: normal bank blood
Assay: In vitro pO2 and hemoglobin saturation of bank blood after oxygen or ozone/oxygen treatment
Conditions: 5 minutes after gas administration
Experimental: Ozone/oxygen was obtained from a pure (medical grade) oxygen by means of a medical ozone generator (Ozomed, a device manufactured in N.C.S.R., Havana, Cuba), at a concentration of 50 mg ozone/L oxygen (ca. 3.7%).
The ability of ozone/oxygen to in vitro raise pO2 of normal bank blood was compared to that of pure medical oxygen. To each one often paired (5+5) blood samples (5 mL each) contained in closed 10 ml vials, 2.5 mL of pure oxygen or ozone/oxygen mixture respectively were carefully bubbled through. Gasometric analyses were performed in test samples 5 minutes after gas administration and also in control untreated samples.

With O=O [O2, oxygen] the PO2 (5 mL blood, 2.5 mL gas bubbled through, n = 5, control 41 ± 1) was 73 ± 2, the “PO2 rise (%) (above control)” value (n = 5) was 78% and the HB saturation (n = 5, control 60 ± 1) was 86 ± 2.
